Results on 74 compounds are retold here after ChEMBL document CHEMBL1697681, “Predicting phospholipidosis using machine learning” (Mol Pharm, 2010).

In the series the test system is Phospholipidosis. The experiment in a line: Literature-mined public compounds from Lowe et al phospholipidosis modelling dataset.
Turning to `CNS(=O)(=O)Cc1ccc2[nH]cc(CCN(C)C)c2c1`, the Phospholipidosis entry is recorded as “Negative”.

Turning to `CN(C)CCN(Cc1cccs1)c1ccccn1`, the Phospholipidosis entry is listed as “Negative”. As to `CN1CCN(Cc2nc3cccc4c3c([n+]2[O-])-c2ccccc2-4)CC1`, the Phospholipidosis entry was “Positive”.

For the compound `CC1=C(CC(=O)O)c2cc(F)ccc2/C1=C\c1ccc([S+](C)[O-])cc1` (centres undefined), the Phospholipidosis result is recorded as “Negative”. Under `CN(C)CCC=C1c2ccccc2CCc2c(Cl)cccc21` stands “Positive”; under `OC(CN1CCCCC1)c1ccc(C=C2c3ccccc3-c3ccccc32)cc1` (centres undefined), “Positive”; under `CCCC[C@@H]1CC(=O)[C@]2(O)O[C@@H]3[C@@H](NC)[C@@H](O)[C@@H](NC)[C@H](O)[C@H]3O[C@@H]2O1.O=S(=O)(O)O`, “Positive”. Consider `CN1CCN(C2=Nc3cc(Cl)ccc3N(C)n3cccc32)CC1`, for which the Phospholipidosis result is recorded as “Positive”. Consider `C=C1C[C@@H]1C[C@H](N)C(=O)O`, for which the Phospholipidosis result is reported as “Negative”. Consider `CN(C)CCC=C1c2ccccc2C=Cc2c(Cl)cccc21`, for which the Phospholipidosis entry is listed as “Positive”.

Consider `CCN(CC)CCn1nc2c3c(c(C)ccc31)Sc1cc(Cl)ccc1-2`, for which the Phospholipidosis entry is recorded as “Positive”.

Regarding `CCN(CC)Cc1cc(Nc2ccnc3cc(Cl)ccc23)ccc1O.Cl`, the Phospholipidosis result was “Positive”. Under `CC1(C)OCC(C(CS(=O)(=O)c2ccc(Oc3cccc(OC(F)(F)F)c3)cc2)NC=O)O1` (centres undefined) stands “Negative”; under `CC1(C)C(=O)NC(=O)N1CC(COc1ccc(-c2ccc(OC(F)(F)F)cc2)cc1)NC=O` (centres undefined), “Negative”; under `CC1(C)C(=O)NC(=O)N1CC(N)COc1ccc(-c2ccc(OC(F)(F)F)cc2)cc1` (centres undefined), “Positive”. Next, `CCCN[C@@H]1[C@H](C)[C@@H](O)[C@](C)(O)[C@@H](CC)OC(=O)[C@H](C)[C@@H](O[C@H]2C[C@@](C)(OC)[C@@H](O)[C@H](C)O2)[C@H](C)[C@@H](O[C@@H]2O[C@H](C)C[C@H](N(C)C)[C@H]2O)[C@](C)(O)C[C@H]1C`: “Positive”. Regarding `CCCNCCc1ccc(NS(=O)(=O)c2ccc(OC(F)(F)F)cc2)cc1`, the Phospholipidosis result is “Positive”. Turning to `NC[C@H]1Cc2ccc(F)cc2[C@@H](c2ccccc2)O1`, the Phospholipidosis result is “Positive”. With `Clc1ccccc1CNC[C@H]1CC[C@H](CNCc2ccccc2Cl)CC1`, the Phospholipidosis entry is recorded as “Positive”. With `CC1(C)OC[C@H]([C@@H](CS(=O)(=O)c2ccc(Oc3ccc(OC(F)(F)F)cc3)cc2)N(O)C=O)O1`, the Phospholipidosis entry is listed as “Negative”. Under `NCCc1cc(O)c(O)c(O)c1` stands “Positive”; under `CCC[C@@H](NC(=O)N1C(=O)C(CC)(CC)[C@@H]1Oc1ccc(C(=O)N2CCN(C)CC2)cc1)c1ccc2c(c1)OCO2`, “Positive”. `CC1(C)NC(=O)N(C[C@@H](COc2ccc(-c3ccc(OC(F)(F)F)cc3)cc2)N(O)C=O)C1=O`: the Phospholipidosis entry is listed as “Negative”. Next, `C[n+]1ccc(-c2cc[n+](C)cc2)cc1`: “Positive”; `S=C=Nc1cccc2ccccc12` [1-NAPHTHYLISOTHIOCYANATE]: “Negative”; `Cc1ccc2cc3c(ccc4ccccc43)c3c2c1CC3` [3-METHYLCHOLANTHRENE]: “Negative”. Under `Nc1nc(NC2CC2)c2ncn([C@H]3C=C[C@@H](CO)C3)c2n1` [ABACAVIR] stands “Negative”; under `CC(=O)Nc1ccc(O)cc1` [ACETAMINOPHEN], “Negative”. With `Oc1ncnc2[nH]ncc12` [ALLOPURINOL], the Phospholipidosis entry is “Positive”.

Take `NC12CC3CC(CC(C3)C1)C2` [AMANTADINE]: the Phospholipidosis result is “Positive”.

For the compound `Nc1c(Br)cc(Br)cc1CN[C@H]1CC[C@H](O)CC1` [AMBROXOL], the Phospholipidosis result is given as “Positive”.

As to `NCC[C@H](O)C(=O)N[C@@H]1C[C@H](N)[C@@H](O[C@H]2O[C@H](CN)[C@@H](O)[C@H](O)[C@H]2O)[C@H](O)[C@H]1O[C@H]1O[C@H](CO)[C@@H](O)[C@H](N)[C@H]1O` [AMIKACIN], the Phospholipidosis result was “Positive”.

As for `O=C(O)CCCCCCNC1c2ccccc2CCc2ccccc21` [AMINEPTINE], the Phospholipidosis result is recorded as “Negative”. Next, `CCCCc1oc2ccccc2c1C(=O)c1cc(I)c(OCCN(CC)CC)c(I)c1` [AMIODARONE]: “Positive”. In the case of `CN(C)CCC=C1c2ccccc2CCc2ccccc21` [AMITRIPTYLINE], the Phospholipidosis entry was “Positive”. Next, `CC(=O)Oc1ccccc1C(=O)O` [ASPIRIN]: “Negative”; `CN1[C@@H]2CC[C@H]1C[C@@H](OC(=O)C(CO)c1ccccc1)C2` (some centres undefined) [ATROPINE]: “Positive”; `Cl.Cl.O=C(CCN1CCN2CCCC2C1)N1c2ccccc2Sc2ccc(Cl)cc21` (centres undefined) [AZACLORZINE HYDROCHLORIDE]: “Negative”.

On to `CN(C)CCCN(C)[C@H]1CC[C@H]2[C@@H]3CC=C4C[C@@H](O)CC[C@]4(C)[C@H]3CC[C@]12C` [AZACOSTEROL], for which the Phospholipidosis entry was “Positive”.

Take `[N-]=[N+]=CC(=O)OC[C@H](N)C(=O)O` [AZASERINE]: the Phospholipidosis entry is “Negative”.

Turning to `CN1CCN(CCCCN2C(=O)CN(/N=C/c3ccc(-c4ccc(Cl)cc4)o3)C2=O)CC1.Cl.Cl` [AZIMILIDE DIHYDROCHLORIDE], the Phospholipidosis entry is given as “Positive”. Next, `CC[C@H]1OC(=O)[C@H](C)[C@@H](O[C@H]2C[C@@](C)(OC)[C@@H](O)[C@H](C)O2)[C@H](C)[C@@H](O[C@@H]2O[C@H](C)C[C@H](N(C)C)[C@H]2O)[C@](C)(O)C[C@@H](C)CN(C)[C@H](C)[C@@H](O)[C@]1(C)O` [AZITHROMYCIN]: “Positive”; `NC(=O)c1ccccc1` [BENZAMIDE]: “Positive”. Under `CC(O)(CS(=O)(=O)c1ccc(F)cc1)C(=O)Nc1ccc(C#N)c(C(F)(F)F)c1` (centres undefined) [BICALUTAMIDE] stands “Negative”. Under `C=CC1=C(C)/C(=C/c2[nH]c(Cc3[nH]c(/C=C4\NC(=O)C(C)=C4C=C)c(C)c3CCC(=O)O)c(CCC(=O)O)c2C)NC1=O` [BILIRUBIN] stands “Positive”. Consider `FC(F)(F)c1ccc(-c2ccc(OCCN3CCCC3)cc2)cc1` [BOXIDINE], for which the Phospholipidosis entry is “Positive”.

As to `CN(Cc1cc(Br)cc(Br)c1N)C1CCCCC1` [BROMHEXINE], the Phospholipidosis entry is reported as “Positive”. Take `CC(NC(C)(C)C)C(=O)c1cccc(Cl)c1` (centres undefined) [BUPROPION]: the Phospholipidosis result was “Negative”. Under `O=C1CC2(CCCC2)CC(=O)N1CCCCN1CCN(c2ncccn2)CC1` [BUSPIRONE] stands “Negative”; under `Cn1c(=O)c2c(ncn2C)n(C)c1=O` [CAFFEINE], “Negative”; under `NC(=O)N1c2ccccc2C=Cc2ccccc21` [CARBAMAZEPINE], “Negative”. Under `ClC(Cl)(Cl)Cl` [CARBON TETRACHLORIDE] stands “Negative”.

Consider `CC(C)(O/N=C(\C(=O)N[C@@H]1C(=O)N2C(C(=O)[O-])=C(C[n+]3ccccc3)CS[C@H]12)c1csc(N)n1)C(=O)O` [CEFTAZIDIME], for which the Phospholipidosis entry was “Negative”. Next, `O=C(N[C@H](CO)[C@H](O)c1ccc([N+](=O)[O-])cc1)C(Cl)Cl` [CHLORAMPHENICOL]: “Positive”.

With `CN1CCN(C(c2ccccc2)c2ccc(Cl)cc2)CC1` (centres undefined) [CHLORCYCLIZINE], the Phospholipidosis entry is “Positive”. Turning to `ClC(Cl)Cl` [CHLOROFORM], the Phospholipidosis result is “Negative”. Next, `CC(CCCN(CCCl)CCCl)Nc1ccnc2cc(Cl)ccc12` (centres undefined) [CHLOROQUINE MUSTARD]: “Positive”; `CCN(CC)CCCC(C)Nc1ccnc2cc(Cl)ccc12` (centres undefined) [CHLOROQUINE]: “Positive”. Next, `CC(C)(N)Cc1ccc(Cl)cc1` [CHLORPHENTERMINE]: “Positive”.

On to `CN(C)CCCN1c2ccccc2Sc2ccc(Cl)cc21` [CHLORPROMAZINE], for which the Phospholipidosis entry is on record as “Positive”. Next, `CN(C)[C@@H]1C(O)=C(C(N)=O)C(=O)[C@@]2(O)C(O)=C3C(=O)c4c(O)ccc(Cl)c4[C@@](C)(O)[C@H]3C[C@@H]12` [CHLORTETRACYCLINE]: “Negative”. Under `CN/C(=N/CCSCc1nc[nH]c1C)NC#N` [CIMETIDINE] stands “Negative”; under `CC(C)(Oc1ccc(C2CC2(Cl)Cl)cc1)C(=O)O` (centres undefined) [CIPROFIBRATE], “Negative”. As for `CN(C)CCCC1(c2ccc(F)cc2)OCc2cc(C#N)ccc21` (centres undefined) [CITALOPRAM], the Phospholipidosis entry is “Positive”. Under `CC[C@H]1OC(=O)[C@H](C)[C@@H](O[C@H]2C[C@@](C)(OC)[C@@H](O)[C@H](C)O2)[C@H](C)[C@@H](O[C@@H]2O[C@H](C)C[C@H](N(C)C)[C@H]2O)[C@](C)(OC)C[C@@H](C)C(=O)[C@H](C)[C@@H](O)[C@]1(C)O` [CLARITHROMYCIN] stands “Negative”; under `CCC[C@@H]1C[C@@H](C(=O)N[C@@H]([C@H]2O[C@H](SC)[C@H](O)[C@@H](O)[C@H]2O)[C@H](C)Cl)N(C)C1` [CLINDAMYCIN], “Positive”.

With `CC1(C)N=C(N)N=C(N)N1OCc1ccc(Cl)c(Cl)c1` [CLOCIGUANIL], the Phospholipidosis result is listed as “Positive”. Under `CCOC(=O)C(C)(C)Oc1ccc(Cl)cc1` [CLOFIBRATE] stands “Negative”; under `CCOC(=O)NC(C)(C)Cc1ccc(Cl)cc1` [CLOFOREX], “Negative”. On to `N#Cc1ccc(NC(=O)N=C(N)N)cc1Cl` [CLOGUANAMIL], for which the Phospholipidosis result is recorded as “Positive”. Next, `CN(C)CCCC1c2ccccc2Nc2ccc(Cl)cc21` (centres undefined) [CLOMACRAN]: “Positive”; `CN(C)CCCN1c2ccccc2CCc2ccc(Cl)cc21` [CLOMIPRAMINE]: “Positive”; `CN1CCN(C2=Nc3cc(Cl)ccc3Nc3ccccc32)CC1` [CLOZAPINE]: “Positive”. Consider `COc1cc2c(c(OC)c1OC)-c1ccc(OC)c(=O)cc1[C@@H](NC(C)=O)CC2` [COLCHICINE], for which the Phospholipidosis entry was “Negative”.
